Experimental data reported in patent US7462347B2, “Fluorescent membrane intercalating probes” (priority 2000, dated 2008).

Legend:
[1] = Solubility of FR/NIR probes in ethanol, water and Diluent C; format: physicochemical
Description: Effects of the various combinations of asymmetrical and symmetrical alkyl chains and methene bridges on the solubility of the compounds of the present invention were examined. Compounds 8, 25, 13, 15 and 26 were all soluble in ethanol at concentrations≧1 mM. The more lipophilic probes 15 and 26, however, required sonication for a few minutes to achieve dissolution at 1 mM in ethanol. All example probes-were poorly soluble in water. Triplicate 1:50 dilutions of stock 1 mM probe solutions were made in either ethanol or test diluent. After 30 minutes at room temperature solutions were centrifuged at 10,000×g for 10 minutes to remove any microagregates and […] aliquots were transferred to 2.0 ml of ethanol for absorbance determinations. Based on the teachings of Leung et al. and on solubility specifications found on Sigma Certificates of Analysis for the commercial diluents (diluent supernatant absorbance at 30 minutes at least 60% of ethanol supernatant absorbance after 30 minutes), a preliminary specification at least 60% of the ethanol control was set as a surrogate for solubility sufficient to achieve cell labeling with S/N ratios greater than 100 and to minimize potential problems with brightness or reproducibility of labeling. None of the probes was as soluble after 30 minutes in Diluent C as PKH26 (86%±4% of ethanol control).

[2] = tested on: YAC-1 murine lymphoma cells; experiment: Probe effects on cell viability and cell growth (Maximum Tolerated Concentration); format: cell-based; settings: for Growth Inhibition / Cytotoxicity: at MTC; for Growth Inhibition: 22-24 hours culture, versus diluent alone; for Cytotoxicity: trypan blue exclusion immediately post-staining (T = 0)
Description: YAC-1 murine lymphoma cells were stained at a concentrations of 10^7 cells/ml with increasing concentrations of probe by rapidly admixing 2× cells suspended in Diluent C with 2× probe in Diluent C. After 5 minutes at room temperature, the staining was stopped by the addition of cell culture medium. Cells were then washed thoroughly (RPI1640+10.0% FBS) and cultured under standard conditions for 22-24 hours. Cell numbers were compared to those in a control culture treated with diluent alone.
Maximum Tolerated Concentration (MTC) of probe was defined as the highest concentration of probe at which (1) viability by trypan blue exclusion immediately post-staining was>90% and (2) YAC cell growth after 24 hours was no more than 10% different than growth of cells in diluent alone.

[3] = Absorbance/emission spectra in ethanol; format: physicochemical; parameters: key to Excitation Max / Emission Max: wavelength in nm; settings: for Absorbance Max / Emission Max / Excitation Max: solutions in ethanol
Description: Referring now to Table 1 there are shown representations of the absorbance and emission properties of some example compounds of the present invention. Absorption and Fluorescence spectra were […] using 0.25 μM solutions in ethanol on a Jasco, Inc. UV-530 UV/VIS spectrophotometer and FP 750 spectrofluorometer, respectively. Approximate extinction coefficients were estimated from the absorbance scans by dividing the maximum absorbance by the nominal concentration ([…]).

| Structure (SMILES) | solubility after 30 minutes in Diluent C ([1]; 1:50 dilution of 1 mM stock, 30 minutes at room temperature) | Growth Inhibition [2] [%] | Cytotoxicity [2] [%] | solubility retained in Diluent C after 30 minutes ([1]; 30 min, 20 µM) | solubility ([1]; organic solvent or mixture) [µM] | MTC (Maximum Tolerated Concentration) ([2]; YAC-1 cells, 5 minutes staining in Diluent C) [µM] | Absorbance Max [3] | Emission Max [3] | Excitation Max [3] | solubility retained in Diluent C after 30 minutes ([1]; Diluent C, 30 minutes) | maximum fluorescence ([3]; excitation light of about 635 nm) [nm] | emission maximum wavelength ([3]; excitation light of about 647 nm) [nm] |
| --- | --- | --- | --- | --- | --- | --- | --- | --- | --- | --- | --- | --- |
| CCCCCCCCCCCCCCCCCCCCCC[N+]1=C(/C=C/C=C2/N(CCCCCCCCCCCCCC)c3ccccc3C2(C)C)C(C)(C)c2ccccc21.[I-] [PKH26, reference compound] | 86%±4% | <1 | <1 |  |  |  |  |  |  |  |  |  |
| CCCCCCCCCCCCCCCCCCCCCC[N+]1=C(/C=C/C=C/C=C2/N(CCCCCCCCCCCCCC)c3ccc4ccccc4c3C2(C)C)C(C)(C)c2ccccc21 [Compound 25] |  | <4 | <1 | greater than 55 % of solubility at T0 | ≥ 1000 | 10 | 666 | 682 | 667 |  |  |  |
| CCCCCCCCCCCCCCCCCCCCCC[N+]1=C(/C=C/C=C/C=C/C=C2/N(CCCCCCCCCCCCCC)c3ccc4ccccc4c3C2(C)C)C(C)(C)c2c1ccc1ccccc21.[I-] [Compound 15] |  | <5 | <1 |  |  |  | 786 | 814 | 790 | approximately 65 % of solubility at T0 |  |  |
| CCCCCCCCCCCCCCCCCCCCCC[N+]1=C(/C=C/C=C/C=C2/N(CCCCCCCCCCCCCC)c3ccccc3C2(C)C)C(C)(C)c2ccccc21.[I-] [Compound 8] |  | <1 | <1 |  |  |  | 626 | 667 | 647 | approximately 65 % of solubility at T0 | 667 |  |
| CCCCCCCCCCCCCCCCCCCCCC[N+]1=C(/C=C/C=C/C=C2/N(CCCCCCCCCCCCCC)c3ccc4ccccc4c3C2(C)C)C(C)(C)c2c1ccc1ccccc21.[I-] [Compound 13] |  | <1 | <1 |  |  |  | 684 | 713 | 680 |  |  | 713 |
